# Reference: the supplement of paper PMC10307832
# Key:
# Assay in all cases: relative viability (nuclei count vs DMSO), 5 days (fraction); higher = more cells survive
# BEN = test system: BEN
# Outline: (§1)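 The day after seeding in 1536-well plates, lung cancer cell lines were treated by pin tool with a single drug, or with a fixed anchor-drug dose together with five library-drug doses (not always all listed) in √10 steps. After 5 days, a combined fix-and-stain solution (final 0.05% Triton X-100, 1% formaldehyde, 1 ug/ml Hoechst) was added. Nuclei counted on 4× images gave relative viability as treated counts over vehicle counts, reported as the median of duplicate plates.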
# COR-L 105 = test system: COR-L 105
# Outline: as §1
# ChaGo-K-1 = test system: ChaGo-K-1
# Outline: as §1
# EKVX = test system: EKVX
# Outline: as §1
# EMC-BAC-2 = test system: EMC-BAC-2
# Outline: as §1
# EPLC-272H = test system: EPLC-272H
# Outline: as §1
# HCC-78 = test system: HCC-78
# Outline: as §1
# HCC-827 = test system: HCC-827
# Outline: as §1
# LCLC-97TM1 = test system: LCLC-97TM1
# Outline: as §1
# LK-2 = test system: LK-2
# Outline: as §1
# LOU-NH91 = test system: LOU-NH91
# Outline: as §1
# LU99A = test system: LU99A
# Outline: as §1
# NCI-H1650 = test system: NCI-H1650
# Outline: as §1
# NCI-H1734 = test system: NCI-H1734
# Outline: as §1
# NCI-H1944 = test system: NCI-H1944
# Outline: as §1
# NCI-H2087 = test system: NCI-H2087
# Outline: as §1
# NCI-H2126 = test system: NCI-H2126
# Outline: as §1
# NCI-H358 = test system: NCI-H358
# Outline: as §1
# NCI-H727 = test system: NCI-H727
# Outline: as §1
# RERF-LC-KJ = test system: RERF-LC-KJ
# Outline: as §1
# SK-MES-1 = test system: SK-MES-1
# Outline: as §1
# SW 1573 = test system: SW 1573
# Outline: as §1
smiles,measurement,setting,value
O=C(O)CCCCC(CCSCc1ccccc1)SCc1ccccc1 (centres undefined) [CPI-613] + Cc1cc(Nc2cc(N3CCN(C)CC3)nc(Sc3ccc(NC(=O)C4CC4)cc3)n2)n[nH]1 [Tozasertib] (partner 0.1 µM),relative viability,BEN; first compound 5 µM,0.532
same,relative viability,BEN; first compound 15.81 µM,0.47
same,relative viability,BEN; first compound 50 µM,0.495
same,relative viability,BEN; first compound 158.11 µM,0.535
same,relative viability,BEN; first compound 500 µM,0.408
same,relative viability,COR-L 105; first compound 5 µM,0.288
same,relative viability,COR-L 105; first compound 15.81 µM,0.348
same,relative viability,COR-L 105; first compound 50 µM,0.321
same,relative viability,COR-L 105; first compound 158.11 µM,0.321
same,relative viability,COR-L 105; first compound 500 µM,0.137
same,relative viability,ChaGo-K-1; first compound 5 µM,0.207
same,relative viability,ChaGo-K-1; first compound 15.81 µM,0.185
same,relative viability,ChaGo-K-1; first compound 50 µM,0.234
same,relative viability,ChaGo-K-1; first compound 158.11 µM,0.148
same,relative viability,ChaGo-K-1; first compound 500 µM,0.16
same,relative viability,EKVX; first compound 5 µM,0.384
same,relative viability,EKVX; first compound 15.81 µM,0.401
same,relative viability,EKVX; first compound 50 µM,0.366
same,relative viability,EKVX; first compound 158.11 µM,0.368
same,relative viability,EKVX; first compound 500 µM,0.41
same,relative viability,EMC-BAC-2; first compound 5 µM,0.333
same,relative viability,EMC-BAC-2; first compound 15.81 µM,0.287
same,relative viability,EMC-BAC-2; first compound 50 µM,0.284
same,relative viability,EMC-BAC-2; first compound 158.11 µM,0.124
same,relative viability,EMC-BAC-2; first compound 500 µM,0.0704
same,relative viability,EPLC-272H; first compound 5 µM,0.285
same,relative viability,EPLC-272H; first compound 15.81 µM,0.279
same,relative viability,EPLC-272H; first compound 50 µM,0.242
same,relative viability,EPLC-272H; first compound 158.11 µM,0.0813
same,relative viability,EPLC-272H; first compound 500 µM,0.0387
same,relative viability,HCC-78; first compound 5 µM,0.46
same,relative viability,HCC-78; first compound 15.81 µM,0.402
same,relative viability,HCC-78; first compound 50 µM,0.408
same,relative viability,HCC-78; first compound 158.11 µM,0.433
same,relative viability,HCC-78; first compound 500 µM,0.405
same,relative viability,HCC-827; first compound 5 µM,0.451
same,relative viability,HCC-827; first compound 15.81 µM,0.388
same,relative viability,HCC-827; first compound 50 µM,0.409
same,relative viability,HCC-827; first compound 158.11 µM,0.375
same,relative viability,HCC-827; first compound 500 µM,0.292
same,relative viability,LCLC-97TM1; first compound 5 µM,0.209
same,relative viability,LCLC-97TM1; first compound 15.81 µM,0.204
same,relative viability,LCLC-97TM1; first compound 50 µM,0.247
same,relative viability,LCLC-97TM1; first compound 158.11 µM,0.138
same,relative viability,LCLC-97TM1; first compound 500 µM,0.0361
same,relative viability,LK-2; first compound 5 µM,0.173
same,relative viability,LK-2; first compound 15.81 µM,0.162
same,relative viability,LK-2; first compound 50 µM,0.189
same,relative viability,LK-2; first compound 158.11 µM,0.181
same,relative viability,LK-2; first compound 500 µM,0.139
same,relative viability,LOU-NH91; first compound 5 µM,0.651
same,relative viability,LOU-NH91; first compound 15.81 µM,0.611
same,relative viability,LOU-NH91; first compound 50 µM,0.62
same,relative viability,LOU-NH91; first compound 158.11 µM,0.684
same,relative viability,LOU-NH91; first compound 500 µM,0.643
same,relative viability,LU99A; first compound 5 µM,0.299
same,relative viability,LU99A; first compound 15.81 µM,0.298
same,relative viability,LU99A; first compound 50 µM,0.293
same,relative viability,LU99A; first compound 158.11 µM,0.343
same,relative viability,LU99A; first compound 500 µM,0.34
same,relative viability,NCI-H1650; first compound 5 µM,0.441
same,relative viability,NCI-H1650; first compound 15.81 µM,0.321
same,relative viability,NCI-H1650; first compound 50 µM,0.417
same,relative viability,NCI-H1650; first compound 158.11 µM,0.0645
same,relative viability,NCI-H1650; first compound 500 µM,0.0151
same,relative viability,NCI-H1734; first compound 5 µM,0.235
same,relative viability,NCI-H1734; first compound 15.81 µM,0.24
same,relative viability,NCI-H1734; first compound 50 µM,0.291
same,relative viability,NCI-H1734; first compound 158.11 µM,0.152
same,relative viability,NCI-H1734; first compound 500 µM,0.118
same,relative viability,NCI-H1944; first compound 5 µM,0.264
same,relative viability,NCI-H1944; first compound 15.81 µM,0.233
same,relative viability,NCI-H1944; first compound 50 µM,0.268
same,relative viability,NCI-H1944; first compound 158.11 µM,0.195
same,relative viability,NCI-H1944; first compound 500 µM,0.127
same,relative viability,NCI-H2087; first compound 5 µM,0.316
same,relative viability,NCI-H2087; first compound 15.81 µM,0.256
same,relative viability,NCI-H2087; first compound 50 µM,0.21
same,relative viability,NCI-H2087; first compound 158.11 µM,0.0949
same,relative viability,NCI-H2087; first compound 500 µM,0.0489
same,relative viability,NCI-H2126; first compound 5 µM,0.775
same,relative viability,NCI-H2126; first compound 15.81 µM,0.778
same,relative viability,NCI-H2126; first compound 50 µM,0.817
same,relative viability,NCI-H2126; first compound 158.11 µM,0.281
same,relative viability,NCI-H2126; first compound 500 µM,0.0758
same,relative viability,NCI-H358; first compound 15.81 µM,0.113
same,relative viability,NCI-H358; first compound 50 µM,0.0981
same,relative viability,NCI-H358; first compound 158.11 µM,0.0576
same,relative viability,NCI-H358; first compound 500 µM,0.0347
same,relative viability,NCI-H727; first compound 5 µM,0.557
same,relative viability,NCI-H727; first compound 15.81 µM,0.697
same,relative viability,NCI-H727; first compound 50 µM,0.685
same,relative viability,NCI-H727; first compound 158.11 µM,0.369
same,relative viability,NCI-H727; first compound 500 µM,0.455
same,relative viability,RERF-LC-KJ; first compound 5 µM,0.536
same,relative viability,RERF-LC-KJ; first compound 15.81 µM,0.513
same,relative viability,RERF-LC-KJ; first compound 50 µM,0.454
same,relative viability,RERF-LC-KJ; first compound 158.11 µM,0.188
same,relative viability,RERF-LC-KJ; first compound 500 µM,0.0899
same,relative viability,SK-MES-1; first compound 5 µM,0.895
same,relative viability,SK-MES-1; first compound 15.81 µM,0.783
same,relative viability,SK-MES-1; first compound 50 µM,0.753
same,relative viability,SK-MES-1; first compound 158.11 µM,0.138
same,relative viability,SK-MES-1; first compound 500 µM,0.106
same,relative viability,SW 1573; first compound 5 µM,0.232
same,relative viability,SW 1573; first compound 15.81 µM,0.196
same,relative viability,SW 1573; first compound 50 µM,0.15
same,relative viability,SW 1573; first compound 158.11 µM,0.103
same,relative viability,SW 1573; first compound 500 µM,0.0651
